Measured values reported in patent US20110263647A1 (AMGEN INC., priority 2009, published 2011).
Where a name gives a salt, the structure may show the parent alone. Read-outs that look alike come from different tables or passages of the source.

Tests used:
[1] = In vivo pharmacokinetics, IV and oral gavage; parameters: species or system male Sprague-Dawley rats; conditions: rat; for FPO: Table 5; for Fpo (%): Table 6; for clearance / AUC(0-t) / Cmax / Vd: male, Sprague-Dawley, plasma; for Vd: read-out: Vss
Procedure: In vivo pharmacokinetic parameters were determined by measuring systemic plasma exposure in male Sprague-Dawley rats (Charles River Laboratories or Taconic, Oxnard, Calif.) by intravenous administration (N=3 fed rats: 2 mg/kg tail vein injection in DMSO) and oral gavage (N=3 fasted rats: 5 mg/kg in 1% Tween 80-2% HPMC-97% deionized water-pH 2.0 vehicle) (Comparative Example 18′ was only dosed IV and at 0.5 mg/kg). DMSO was obtained from Mallinckrodt Inc.; Tween 80 was obtained from Croda; HPMC is Methocel E50 Premium LV, obtained from Dow Excipients. Following oral administration, blood was drawn (250 μL) at 0.25, 0.5, 1, 2, 4, 6, 8, 12, and 16 hours. Following iv administration, blood was drawn (250 μL) at 0.083, 0.25, 0.5, 1, 2, 4, 6, 8, and 16 hours. Blood samples were drawn using a Culex® In Vivo Sampling System (BASi) and collected in BD Microtainer® tubes containing Lithium Heparin (BD). Plasma was obtained by centrifugation of blood at 14000 g and 2-8° C. for five minutes using an Eppendorf 5417R Centrifuge System. Plasma samples were mixed with 2× volume of acetonitrile (Sigma-Aldrich, St. Louis, Mo.). The mixture was stirred briefly using a vortex mixer and then centrifuged at 2867 g for 5 minutes in a Beckman Coulter Allegra 25R equipped with a Type S5700 rotor. The supernatant was removed and diluted 2× with mobile phase A (5/94.9/0.1 v/v/v MeOH/water/AcOH). Plasma concentrations were determined using liquid chromatography/tandem mass spectrometry, with electrospray ionization (ESI) and multiple reaction monitoring in the positive ion mode (Sciex API 3000 mass spectrometer connected to a Shimadzu LC-20AD pump and a LEAP PAL autosampler. Typical conditions used for HPLC were: mobile phase A=5/94.9/0.1 v/v/v MeOH/water/AcOH and mobile phase B=95/4.9/0.1 v/v/v MeOH/water/AcOH; HPLC column was a Varian MonoChrom C18.3μ for 2×30 mm and 51.1 for 2×50 mm) Instrument response was calibrated by a standard curve over 0.1-2000 ng/mL concentration range, and the lower limit of quantitation was 0.1-2.5 ng/mL. Peak areas were integrated on a Windows 2000 computer using the Sciex program Analyst® (Version 1.4.1). Following peak area integration, the data were exported to the software package (Watson® Non-GLP PROD (Version 7.0.0.01, Thermo Electron Corp., Waltham, Mass.)), where concentrations were determined by a weighted linear regression of peak area versus the nominal concentrations of the calibration standards. Calculations were performed on unrounded numbers. The Watson® Non-GLP PROD software was used to determine precision and accuracy for the calibration standards. Noncompartmental analysis of plasma concentration data was used to generate PK parameters such as clearance (CL, L/h/kg), volume of distribution (Vss, L/kg), area under the curve (AUC, ng·h/mL) and secondary parameters such as half-life (t1/2, h) and oral bioavailability (% F, %). This was done using WinNonlin Enterprise software (Version 5.1.1, from Pharsight Corp., Mountain View, Calif.). References for pharmacokinetic analysis include: Gabrielsson and Weiner (1997) Pharmacokinetic and Pharmacodynamic Data Analysis Concepts and Applications, 2nd ed., Swedish Pharmaceutical Press, Stockholm; Gibaldi and Perrier (1982) Pharmacokinetics, 2nd ed., Marcel Dekker, New York. Rowland and Tozer (1995) Clinical Pharmacokinetics: Concepts and Applications, 3rd ed., Lippincott Williams & Wilkins, Philadelphia.

PKBα = target: T1, PKBα (Homo sapiens, UniProt P31749); experiment: PKB kinase assay (P33-labeled ATP, peptide substrate, filter plate); assay type: biochemical; conditions: with respect to PKBα
T1 construct: fused on or other part: His6 tag is likely on the Upstate products
T1 sequence (P31749 118-472 limits assumed): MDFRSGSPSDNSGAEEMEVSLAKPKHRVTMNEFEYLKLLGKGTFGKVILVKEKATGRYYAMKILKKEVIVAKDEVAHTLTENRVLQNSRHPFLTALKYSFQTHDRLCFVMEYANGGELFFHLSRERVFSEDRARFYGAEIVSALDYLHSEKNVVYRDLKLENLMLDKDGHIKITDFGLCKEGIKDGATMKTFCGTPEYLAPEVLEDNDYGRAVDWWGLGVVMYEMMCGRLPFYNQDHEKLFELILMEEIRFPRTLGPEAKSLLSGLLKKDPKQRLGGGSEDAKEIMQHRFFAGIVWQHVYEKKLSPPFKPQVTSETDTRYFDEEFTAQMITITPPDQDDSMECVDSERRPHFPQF
From the text: The kinase assay for evaluating PKB activity comprises active PKB enzymes, a PKB specific substrate, and P^33-labeled ATP. Two form of PKBα enzymes were used, the full length PKBα and a kinase domain of PKBα with pleckstrin domain (amino acids 1-117) deleted. Both PKB enzymes were obtained from Upstate cell signaling solutions (Cat.# 14-276 and 14-341). The PKB substrate used is a synthetic peptide (ARKRERTYSFGHHA (SEQ ID NO: 1)) as described in Obata et al., J. Biol. Chem. 275 (46), 36108-36115 (2000). The phosphorylated substrate was captured by a phosphocellulose membrane filter plate (MILLIPORE) and measured by a Wallac Microbeta liquid scintillation counter (Perkin Elmer). Table 1 provides the IC50 values obtained for each of the examples with respect to PKBα.

[2] = IV 2 mg/kg, read-out: IV AUClast
[3] = PO 5 mg/kg, read-out: Oral AUClast
[4] = PO 5 mg/kg, read-out: Oral Cmax

| Compound | FPO ([1]; PO 5 mg/kg, IV 2 mg/kg) [%] | Fpo (%) ([1]; PO 5 mg/kg, IV 2 mg/kg) | clearance ([1]; IV 2 mg/kg) [mL/min/kg] | AUC(0-t) [1, 2] [ng·h/mL] | Cmax ([1]; IV 2 mg/kg, read-out: IV Cmax) [ng/mL] | Vd ([1]; IV 2 mg/kg) [L/kg] | AUC(0-t) [1, 3] [ng·h/mL] | Cmax [1, 4] [ng/mL] | IC50 (PKBα) [nM] |
| --- | --- | --- | --- | --- | --- | --- | --- | --- | --- |
| N[C@H](CNc1ncc(-c2ccc3cnc(F)cc3c2)s1)Cc1ccc(C(F)(F)F)nc1 [Example 2, (2S)—N-(5-(3-Fluoro-6-isoquinolinyl)-1,3-thiazol-2-yl)-3-(6-(trifluoromethyl)-3-pyridinyl)-1,2-propanediamine] | 40 | 57 | 12.1 | 2370 | 531 | 5.19 | 2380 | 302 | < 50 |
| N[C@H](CNc1ncc(-c2ccc3cnc(F)cc3c2)s1)Cc1ccc(C(F)(F)F)cc1 [Example 4, N—((S)-2-Amino-3-(4-(trifluoromethyl)phenyl)propyl)-5-(3-fluoroisoquinolin-6-yl)thiazol-2-amine trifluoroacetate] | 4 | 65 | 21.6 | 1530 | 959 | 2.59 | 165 | 25 | < 50 |
| CC(F)(F)c1ccc(C[C@H](N)CNc2ncc(-c3ccc4cnc(F)cc4c3)s2)cn1 [Example 7, N—((S)-2-Amino-3-(6-(1,1-difluoroethyl)pyridin-3-yl)propyl)-5-(3-fluoroisoquinolin-6-yl)thiazol-2-amine] | 42 | 47 | 22.2 | 1440 | 432 | 6.22 | 1500 | 216 | < 50 |
| C[C@@H](c1ccc(C(F)(F)F)cc1)[C@H](N)CNc1ncc(-c2ccc3cnc(F)cc3c2)s1 [Example 10, N-((2S,3S)-2-Amino-3-(4-(trifluoromethyl)phenyl)butyl)-5-(3-fluoroisoquinolin-6-yl)thiazol-2-amine] | 61 | 52 | 12.5 | 2040 | 426 | 7.17 | 3100 | 316 | < 50 |
| COCc1nc(NC[C@@H](N)Cc2ccc(C(F)(F)F)nc2)sc1-c1ccc2cnc(F)cc2c1 [Example 18, N—((S)-2-Amino-3-(6-(trifluoromethyl)pyridin-3-yl)propyl)-5-(3-fluoroisoquinolin-6-yl)-4-(methoxymethyl)thiazol-2-amine] | 40 | 48 | 17.6 | 1640 | 422 | 8.08 | 1640 | 233 | < 50 |
